Experimental data: patent US10208033B2, “β-carboline, dihydro-β-carboline and tetrahydro-β-carboline alkaloid derivatives and preparation methods same and use in aspects of preventing and treating plant viruses, fungicides and insecticides” (NANKAI UNIVERSITY, priority 2013, dated 2019)
Like-named read-outs stand apart in the source and are kept apart here.

How the values were obtained:
Botrytis cinerea = experiment: Fungicidal (bactericidal) activity in vitro, PDA colony diameter; assay type: cell-based; settings: 50 mg/kg
Alternaria solani = experiment: as above; assay type: cell-based; settings: 50 mg/kg
Phytophthora capsici = experiment: as above; assay type: cell-based; settings: 50 mg/kg
cucumber fusarium wilt = experiment: as above; assay type: cell-based
Fusarium graminearumt = experiment: microbe, parasite or virus in culture; assay type: cell-based; settings: 50 mg/kg
Sclerotinia scleotiorum = experiment: Fungicidal (bactericidal) activity in vitro, PDA colony diameter; assay type: cell-based; settings: 50 mg/kg
Rhizoctonia cereali = experiment: as above; assay type: cell-based; settings: 50 mg/kg
potato late blight = experiment: microbe, parasite or virus in culture; assay type: cell-based
Bipolaria maydis = experiment: organism not typed; assay type: cell-based; settings: 50 mg/kg
[1] = system: tobacco mosaic virus (TMV); experiment: Anti-TMV in vivo inactivation; set-up: species or system tobacco mosaic virus (host Nicotiana tabacum L.cv.Xanthi NN)
[2] = system: Colletotrichum orbiculare; experiment: Fungicidal (bactericidal) activity in vitro, PDA colony diameter; assay type: cell-based; settings: 50 mg/kg
Cercospora arachidicola = experiment: as above; assay type: cell-based; settings: 50 mg/kg
Macrophoma kawatsukai = experiment: as above; assay type: cell-based; settings: 50 mg/kg
Rhizoctonia solani = experiment: as above; assay type: cell-based; settings: 50 mg/kg
corn borers = settings: concentration 600 mg/kg
cotton bollworms = experiment: whole plant or invertebrate; settings: concentration 600 mg/kg
Experimental: Experimental method of cotton bollworms: feed and drug mixing method: measure 3 mL of prepared solution and add it to about 27 g of newly prepared feed, thereby obtaining needed concentration through dilution by 10 times.

armyworms = assay type: in vivo; settings: concentration 600 mg/kg
Fusarium fujikuroi = experiment: Fungicidal (bactericidal) activity in vitro, PDA colony diameter; assay type: cell-based; settings: 50 mg/kg
[3] = system: tobacco mosaic virus (TMV); experiment: Anti-TMV in vivo protective effect; set-up: species or system tobacco mosaic virus (host Nicotiana tabacum L.cv.Xanthi NN)
[4] = system: tobacco mosaic virus (TMV); experiment: Anti-TMV in vivo therapeutic effect; set-up: species or system tobacco mosaic virus (host Nicotiana tabacum L.cv.Xanthi NN)
[5] = system: tobacco mosaic virus (TMV); experiment: Anti-TMV in vitro effect (half-leaf soaking); assay type: cell-based, tobacco mosaic virus (host Nicotiana tabacum L.cv.Xanthi NN)
mosquito larvae = experiment: whole plant or invertebrate; settings: concentration 10 mg/kg, 24 h
Summary of the method: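 Compound dissolved in acetone (or other solvent) to a 1000 ppm stock and diluted in water to 5 ppm. Ten Culex pipiens pallens larvae at the start of the fourth instar, laboratory-reared, added per beaker; solvent-only aqueous control.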

Row | Structure (SMILES) | Bactericidal activity (%) Botrytis cinerea (Botrytis cinerea) [%] | Bactericidal activity (%) Alternaria solani (Alternaria solani) [%] | Bactericidal activity (%) Phytophthora capsici (Phytophthora capsici) [%] | Bactericidal activity (%) Fusarium graminearumt (Fusarium graminearumt) [%] | Bactericidal activity (%) Sclerotinia scleotiorum (Sclerotinia scleotiorum) [%] | Bactericidal activity (%) Rhizoctonia cereali (Rhizoctonia cereali) [%] | Bactericidal activity (%) potato late blight (potato late blight) [%] | Bactericidal activity (%) Bipolaria maydis (Bipolaria maydis) [%] | Relative inhibition rate (%) In vivo inactivation ([1]; treatment dose 100 μg/mL) [%] | Relative inhibition rate (%) In vivo inactivation ([1]; treatment dose 500 μg/mL) [%] | Bactericidal activity (%) Colletotrichum orbiculare [2] [%] | Bactericidal activity (%) Cercospora arachidicola (Cercospora arachidicola) [%] | Bactericidal activity (%) Macrophoma kawatsukai (Macrophoma kawatsukai) [%] | Bactericidal activity (%) Rhizoctonia solani (Rhizoctonia solani) [%] | Corn borer Mortality (%) (corn borers) | Cotton bollworm Mortality (%) (cotton bollworms) | Armyworm Mortality (%) (armyworms) | Bactericidal activity (%) Fusarium fujikuroi (Fusarium fujikuroi) [%] | Relative inhibition rate (%) In vivo protection ([3]; treatment dose 100 μg/mL) [%] | Relative inhibition rate (%) In vivo protection ([3]; treatment dose 500 μg/mL) [%] | other results
1 | C[C@@H]1N[C@H](C(=O)NN=Cc2ccco2)Cc2c1[nH]c1ccccc21 [Ic-18, (1S, 3S)—N′-(furan-2-methylene)-1-methyl-2,3,4,9-tetrahydropyridino [3,4-b] indol-3-formylhydrazine] | 81.8 | 35.0 | 39.5 | 6.9 | 64.7 | 68.6 | 36.0 | 20.0 | 18.2 | 54.6 | 33.3 | 52.9 | 69.4 | 32.9 | 15 | 20 | 10 | 28.6 | 11.5 | 47.5 | Bactericidal activity (%) Cucumber fusarium wilt (cucumber fusarium wilt): 11.5%; Relative inhibition rate (%) In vivo therapy ([4]; treatment dose 100 μg/mL): 9.3%; Relative inhibition rate (%) In vivo therapy ([4]; treatment dose 500 μg/mL): 44.2%; Relative inhibition rate (%) In vitro activity ([5]; treatment dose 100 μg/mL): 15.4%; Relative inhibition rate (%) In vitro activity ([5]; treatment dose 500 μg/mL): 48.8%; Mosquito larvae Mortality (%) (mosquito larvae): 25%
2 | C[C@@H]1N[C@H](C(=O)NN=Cc2ncc[nH]2)Cc2c1[nH]c1ccccc21 [Ic-21, (1S, 3S)—N′-(imidazole-2-methylene)-1-methyl-2,3,4,9-tetrahydropyridino [3,4-b] indol-3-formylhydrazine] | 36.4 | 15.0 | 18.4 | 27.6 | 35.3 | 64.7 | 24.0 | 12.0 | 21.3 | 49.6 | 25.9 | 47.1 | 97.2 | 15.8 | 35 | 45 | 40 | 28.6 | 18.5 | 48.1 | Bactericidal activity (%) Cucumber fusarium wilt (cucumber fusarium wilt; 50 mg/kg): 34.6%; Relative inhibition rate (%) In vivo therapy ([4]; treatment dose 100 μg/mL): 12.6%; Relative inhibition rate (%) In vivo therapy ([4]; treatment dose 500 μg/mL): 45.3%; Relative inhibition rate (%) In vitro activity ([5]; treatment dose 100 μg/mL): 0%; Relative inhibition rate (%) In vitro activity ([5]; treatment dose 500 μg/mL): 42.4%; Mosquito larvae Mortality (%) (mosquito larvae): 85%
3 | C/C=C/C=NNC(=O)[C@@H]1Cc2c([nH]c3ccccc23)[C@H](C)N1 [Ic-22, (1S, 3S)—N′-((E)-but-2-enylidene)-1-methyl-2,3,4,9-tetrahydropyridino [3,4-b] indol-3-formylhydrazine] | 40.9 | 30.0 | 31.6 | 20.7 | 41.2 | 64.7 | 32.0 | 36.0 | 8.5 | 47 | 22.2 | 29.4 | 52.8 | 6.6 | 50 | 20 | 40 | 14.3 | 6.7 | 37.1 | Bactericidal activity (%) Cucumber fusarium wilt (cucumber fusarium wilt; 50 mg/kg): 26.9%; Relative inhibition rate (%) In vivo therapy ([4]; treatment dose 100 μg/mL): 0%; Relative inhibition rate (%) In vivo therapy ([4]; treatment dose 500 μg/mL): 33.2%; Relative inhibition rate (%) In vitro activity ([5]; treatment dose 100 μg/mL): 0%; Relative inhibition rate (%) In vitro activity ([5]; treatment dose 500 μg/mL): 35.2%; Mosquito larvae Mortality (%) (mosquito larvae): 85%
